These results are taken from patent publication US8791132B2, “Compounds and methods for treatment of hypertension” (Medivation Technologies, Inc., priority 2011, dated 2014).

Read-outs that look alike come from different tables or passages of the source.

Usually inhibition stands for the relative decrease from the control value, in per cent.

For experiment [1], the target named is T1, human recombinant adrenergic α2A receptor (Homo sapiens, UniProt P08913).
T1 construct: expressed in transfected cells; host or cells: insect Sf9 cells
T1 sequence (P08913 1-465): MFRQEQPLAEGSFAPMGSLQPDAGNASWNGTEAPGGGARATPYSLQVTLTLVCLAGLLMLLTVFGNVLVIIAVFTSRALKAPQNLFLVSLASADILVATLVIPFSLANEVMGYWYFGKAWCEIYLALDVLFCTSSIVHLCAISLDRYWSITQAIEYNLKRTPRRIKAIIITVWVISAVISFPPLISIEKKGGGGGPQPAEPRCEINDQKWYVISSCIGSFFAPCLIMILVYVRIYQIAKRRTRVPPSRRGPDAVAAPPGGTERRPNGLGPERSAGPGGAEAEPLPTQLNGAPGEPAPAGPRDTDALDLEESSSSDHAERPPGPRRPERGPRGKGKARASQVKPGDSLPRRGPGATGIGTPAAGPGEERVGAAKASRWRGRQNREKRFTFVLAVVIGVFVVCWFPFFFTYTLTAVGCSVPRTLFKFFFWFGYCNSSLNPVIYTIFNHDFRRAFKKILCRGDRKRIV
Briefly: Radioligand binding, adrenergic α2A ([3H]MK-912). The gist of the method:
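Receptor expressed in insect Sf9 cells, assayed in 50 mM Tris-HCl pH 7.4 with 12.5 mM MgCl2 and 2 mM EDTA. Compounds incubated with 1 nM [3H]MK-912 for 60 min at 25 °C; nonspecific binding defined with 10 μM WB-4101. Filter-bound radioactivity counted; values are percent inhibition of specific binding.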

Experiment [2] deals with T2, rat adrenergic α1B receptor (Rattus norvegicus, UniProt P15823).
T2 construct: rat adrenergic α1B receptor obtained from Wistar Rat liver; from tissue; host or cells: Wistar rat liver
T2 sequence (P15823 1-515): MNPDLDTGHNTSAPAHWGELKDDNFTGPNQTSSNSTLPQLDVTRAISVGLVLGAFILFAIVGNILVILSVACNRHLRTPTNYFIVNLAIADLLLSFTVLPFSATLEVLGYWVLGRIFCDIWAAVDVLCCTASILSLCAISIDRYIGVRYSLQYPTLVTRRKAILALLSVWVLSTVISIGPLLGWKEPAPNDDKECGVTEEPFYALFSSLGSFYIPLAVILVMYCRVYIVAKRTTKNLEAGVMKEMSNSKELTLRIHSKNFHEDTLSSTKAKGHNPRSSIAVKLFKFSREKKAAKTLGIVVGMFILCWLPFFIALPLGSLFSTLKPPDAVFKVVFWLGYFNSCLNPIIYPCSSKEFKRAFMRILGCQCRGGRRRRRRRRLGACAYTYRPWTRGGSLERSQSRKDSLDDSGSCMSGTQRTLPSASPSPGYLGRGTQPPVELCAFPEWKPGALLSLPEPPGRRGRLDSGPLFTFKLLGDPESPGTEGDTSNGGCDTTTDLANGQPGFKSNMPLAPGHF
Briefly: Radioligand binding, adrenergic α1B ([3H]Prazosin). The gist of the method:
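Filter binding with Wistar rat liver α1B preparation: test compound plus 0.25 nM [3H]prazosin, 1 h at 25° C in modified Tris-HCl buffer pH 7.4.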

Experiment [3] has as its target T3, human recombinant adrenergic α2B receptor (Homo sapiens, UniProt P18089).
T3 construct: expressed in transfected cells; host or cells: CHO-K1
T3 sequence (P18089 1-450): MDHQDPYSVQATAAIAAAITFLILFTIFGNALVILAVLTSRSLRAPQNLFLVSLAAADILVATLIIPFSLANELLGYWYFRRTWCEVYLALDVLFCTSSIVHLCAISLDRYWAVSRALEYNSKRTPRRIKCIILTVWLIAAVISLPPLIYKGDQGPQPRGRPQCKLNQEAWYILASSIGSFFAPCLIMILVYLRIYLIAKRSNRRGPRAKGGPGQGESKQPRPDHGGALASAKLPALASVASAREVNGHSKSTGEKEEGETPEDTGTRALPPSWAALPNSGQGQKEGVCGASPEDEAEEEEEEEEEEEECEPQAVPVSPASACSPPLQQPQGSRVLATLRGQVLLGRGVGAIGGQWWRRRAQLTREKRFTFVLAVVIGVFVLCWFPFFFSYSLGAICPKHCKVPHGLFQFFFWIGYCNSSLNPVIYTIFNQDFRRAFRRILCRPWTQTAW
Briefly: Radioligand binding, adrenergic α2B ([3H]Rauwolscine). The gist of the method: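 Assay used CHO-K1-expressed human α2B receptor in Tris-HCl pH 7.4 buffer with MgCl2, EDTA and BSA; 60 min incubation at 25 °C.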

Experiment [4] addresses T4, human recombinant adrenergic α1D receptor (Homo sapiens, UniProt P25100).
T4 construct: expressed in transfected cells; host or cells: HEK-293
T4 sequence (P25100 1-572): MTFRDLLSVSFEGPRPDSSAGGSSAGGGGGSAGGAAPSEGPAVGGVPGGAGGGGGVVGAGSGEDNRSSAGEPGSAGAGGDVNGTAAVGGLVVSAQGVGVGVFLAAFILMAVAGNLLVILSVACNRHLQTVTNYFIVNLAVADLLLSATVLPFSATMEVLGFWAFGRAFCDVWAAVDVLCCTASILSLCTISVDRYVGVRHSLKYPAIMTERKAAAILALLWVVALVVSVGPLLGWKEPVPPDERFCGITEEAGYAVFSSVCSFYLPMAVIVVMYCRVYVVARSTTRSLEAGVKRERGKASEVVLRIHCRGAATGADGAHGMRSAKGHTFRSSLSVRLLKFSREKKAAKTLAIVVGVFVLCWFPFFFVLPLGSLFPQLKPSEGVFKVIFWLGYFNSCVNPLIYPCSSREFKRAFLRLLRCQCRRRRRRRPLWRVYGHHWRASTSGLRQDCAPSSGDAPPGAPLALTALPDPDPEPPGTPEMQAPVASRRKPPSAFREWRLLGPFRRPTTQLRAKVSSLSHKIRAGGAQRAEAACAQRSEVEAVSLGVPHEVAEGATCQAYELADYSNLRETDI
Briefly: Radioligand binding, adrenergic α1D ([3H]Prazosin). Here is the method:
Compounds were incubated with 0.6 nM [3H]Prazosin for 60 min at 25° C. Non-specific binding was estimated in the presence of 10 μM phentolamine. Receptor proteins were filtered and washed, the filters were then counted to determine [3H]Prazosin specifically bound. […] Biochemical assay results are presented as the percent inhibition of specific binding in Table B1.

Setting [5] is: read-out: Percentage inhibition of ligand binding, Adrenergic α2A (0.1 μM), compound at 0.1 μM, [3H]MK-912, repeat datapoints each shown.
Where [6] appears, read: read-out: Percentage inhibition of ligand binding, Adrenergic α1B (0.1 μM), compound at 0.1 μM, [3H]Prazosin, repeat datapoints each shown.
[7] abbreviates: read-out: Percentage inhibition of ligand binding, Adrenergic α2B (0.1 μM), compound at 0.1 μM, [3H]Rauwolscine, repeat datapoints each shown.
The mark [8] stands for this setting: read-out: Percentage inhibition of ligand binding, Adrenergic α1D (0.1 μM), compound at 0.1 μM, [3H]Prazosin, repeat datapoints each shown.
The mark [9] stands for this setting: 0.1 μM compound, read-out: Percentage inhibition of ligand binding, Adrenergic α2A.
[10] abbreviates: 0.1 μM compound, read-out: Percentage inhibition of ligand binding, Adrenergic α1B.
Where [11] appears, read: 0.1 μM compound, read-out: Percentage inhibition of ligand binding, Adrenergic α2B.
[12] abbreviates: 0.1 μM compound, read-out: Percentage inhibition of ligand binding, Adrenergic α1D.

For the compound `C=C(Cn1c2c(c3cc(Cl)ccc31)CN(C)CC2)c1ccncc1` [compound 116], the inhibition at 0.1 µM was determined as 22% in experiment [1] (setting [5]), 23% in experiment [2] (setting [6]), 75% in experiment [3] (setting [7]) and 26% in experiment [4] (setting [8]).
`C/C(=C/n1c2c(c3cc(C)ccc31)CN(C)CC2)c1ccc2ccn(C)c2c1` [compound 284]: the inhibition at 0.1 µM amounted to 97% in experiment [1] (setting [9]), 83% in experiment [2] (setting [10]), 76% in experiment [3] (setting [11]) and 81% in experiment [4] (setting [12]).
Take `CN1CCc2c(c3ccccc3n2CC(C)(O)c2ccncc2)C1` (stereo not shown) [II-171]: the inhibition at 0.1 µM in experiment [1] (setting [5]) came to 96%; in experiment [2] (setting [6]), 95%; in experiment [3] (setting [7]), 94%; in experiment [4] (setting [8]), 55%.
With `Cc1ccc(CCn2c3c(c4c(C)ccc(C)c42)CN(C)CC3)cn1` [II-18], the inhibition at 0.1 µM in experiment [1] (setting [9]) was 14%; in experiment [2] (setting [10]) it was -7%; in experiment [3] (setting [11]), -15%; in experiment [4] (setting [12]), -9%.
In the case of `C/C(=C\n1c2c(c3cc(C)ccc31)CN(C)CC2)c1ccc(C)s1` [compound 278], the inhibition at 0.1 µM is 93% in experiment [1] (setting [9]), 62% in experiment [2] (setting [10]), 98% in experiment [3] (setting [11]) and 44% in experiment [4] (setting [12]).
Take `C/C(=C\n1c2c(c3cc(C)ccc31)CNCC2)c1ccncc1` [compound 103]: the inhibition at 0.1 µM was 19% in experiment [1] (setting [5]), 49% in experiment [2] (setting [6]), 80% in experiment [3] (setting [7]) and 20% in experiment [4] (setting [8]).
Consider `COc1ccc(CCn2c3c(c4cc(C)ccc42)CN(C)CC3)cc1` [compound 218], for which the inhibition at 0.03 µM was 85% in experiment [1] (read-out: Percentage inhibition of ligand binding, Adrenergic α2A (0.03 μM), compound at 0.03 μM, [3H]MK-912, repeat datapoints each shown); 79% in experiment [2] (read-out: Percentage inhibition of ligand binding, Adrenergic α1B (0.03 μM), compound at 0.03 μM, [3H]Prazosin, repeat datapoints each shown); 110% in experiment [3] (read-out: Percentage inhibition of ligand binding, Adrenergic α2B (0.03 μM), compound at 0.03 μM, [3H]Rauwolscine, repeat datapoints each shown); 60% in experiment [4] (read-out: Percentage inhibition of ligand binding, Adrenergic α1D (0.03 μM), compound at 0.03 μM, [3H]Prazosin, repeat datapoints each shown).
On to `Cc1ccc2c(c1)c1c(n2C#Cc2cnc3ccccc3c2)CCN(C)C1` [compound 321, 2,8-dimethyl-5-quinolin-3-ylethynyl-2,3,4,5-tetrahydro-1H-pyrido[4,3-b]indole], for which the inhibition at 0.1 µM in experiment [1] (setting [9]) stood at 59%; in experiment [2] (setting [10]), 94%; in experiment [3] (setting [11]), 90%; in experiment [4] (setting [12]) it was 66%.
The like results for `CN1CCc2c(n(CC(O)c3ccccc3F)c3ccc(Cl)cc23)C1` (stereo not shown) [II-48] were, in that order, 26%, 27%, 0% and 8%.
The like results for `C/C(=C/n1c2c(c3cc(C)ccc31)CN(C)CC2)c1cc2ccccc2s1` [compound 293] were, in that order, 96%, 73%, 93% and 82%.
In the case of `C/C(=C/n1c2c(c3cc(C)ccc31)CN(C)CC2)c1cccc2[nH]ncc12` [compound 290], the inhibition at 0.1 µM in experiment [1] (setting [9]) is 80%; in experiment [2] (setting [10]) it was 90%; in experiment [3] (setting [11]) it was 96%; in experiment [4] (setting [12]) it was 79%.
Regarding `CN1CCc2c(c3cccc(Cl)c3n2CC(C)(O)c2ccncc2)C1` (stereo not shown) [compound 32], the inhibition at 0.1 µM turned out to be 28% in experiment [1] (compound at 0.1 μM, [3H]MK-912, repeat assays, each datapoint shown, read-out: Percentage inhibition of ligand binding, Adrenergic α2A); 12% in experiment [2] (compound at 0.1 μM, [3H]Prazosin, repeat assays, each datapoint shown, read-out: Percentage inhibition of ligand binding, Adrenergic α1B); 86% in experiment [3] (compound at 0.1 μM, [3H]Rauwolscine, repeat assays, each datapoint shown, read-out: Percentage inhibition of ligand binding, Adrenergic α2B); 7% in experiment [4] (compound at 0.1 μM, [3H]Prazosin, repeat assays, each datapoint shown, read-out: Percentage inhibition of ligand binding, Adrenergic α1D).
Consider `COc1ccc2c(c1)c1c(n2/C=C(/C)c2ccncc2)CCN(C)C1` [compound 100], for which the inhibition at 0.1 µM in experiment [1] (setting [5]) stood at 20%; in experiment [2] (setting [6]) it was 73%; in experiment [3] (setting [7]) it was 72%; in experiment [4] (setting [8]), 47%.
`Cc1ccc2c(c1)c1c(n2C2=C(c3cc4ccccc4s3)CCC2)CCN(C)C1` [compound 305, 5-(2-(benzo[b]thiophen-2-yl)cyclopent-1-enyl)-2,8-dimethyl-2,3,4,5-tetrahydro-1H-pyrido[4,3-b]indole]: the inhibition at 0.1 µM in experiment [1] (setting [9]) was found to be 93%; in experiment [2] (setting [10]), 20%; in experiment [3] (setting [11]), 79%; in experiment [4] (setting [12]), 41%.
Regarding `CCc1ccc(/C(C)=C/n2c3c(c4cc(C)ccc42)CN(C)CC3)cn1` [II-77], the inhibition at 0.1 µM in experiment [1] (setting [9]) was 43%; in experiment [2] (setting [10]) it was 54%; in experiment [3] (setting [11]) it was 108%; in experiment [4] (setting [12]) it was 66%.
With `Cc1ccc2c(c1)c1c(n2C#Cc2ccc(S(N)(=O)=O)cc2)CCN(C)C1` [compound 330, 4-(2,8-dimethyl-1,2,3,4-tetrahydro-pyrido[4,3-b]indol-5-ylethynyl)-benzenesulfonamide], the inhibition at 0.1 µM in experiment [1] (setting [9]) stood at 58%; in experiment [2] (setting [10]), 98%; in experiment [3] (setting [11]), 99%; in experiment [4] (setting [12]), 72%.
